We go through one compound from patent US11992488B2, “Vasoconstriction compositions and methods of use” (Eye Therapies, LLC, priority 2008, dated 2024).

Assay [1] has as its system patient with an ocular condition. The following applies: brimonidine at 0.01% to […] vs tetrahydrozoline 0.05%, oxymetazoline […], naphazoline […]; one patient, baseline redness 4/4. An excerpt: In an average clinical situation, baseline redness is at 1-1.5/4.
Assay [2] has as its system patient with an ocular condition of moderate hyperemia. Kind of assay: FIGS. 5A-C: reversal of pre-induced rebound hyperemia. Conditions: brimonidine at […], right eye after VISINE Original, FIG. 5C. The format is in vivo, human. The source says:
FIG. 5A is a baseline visual appearance of two eyes of a patient with an ocular condition.

For assay [3], the system named is patients with chronic red eyes. The assay is described as follows: Example 5: chronic red eyes, patient satisfaction assessment. In kind it is in vivo, human. Conditions: eld brimonidine at […], drops twice a day for three to five weeks, seven patients. Here is the method:
The treatment was through drops twice a day for three to five weeks. At the end, patient satisfaction assessment was conducted.

Assay [4] has as its system over-responders wearing contact lenses. The following applies: 0.008% brimonidine while wearing contact lenses, of 100 Subjects (over-responders). An excerpt: Contact lenses provide a reservoir to the surface of the eye allowing drugs to remain longer on the eye and increase their effectiveness.
In assay [5] the test system is over-responders. Conditions: contact lenses soaked in 0.008% brimonidine, of 100 Subjects (over-responders). The source says: Contact lenses are often provided as daily wear lenses stored in a blisterpack solution.
Assay [6] concerns over-responders. The following applies: of 100 Subjects (over-responders).
The test system of a further assay is under-responders. Conditions: of 100 Subjects (under-responders).
For assay [7] the following is noted: FIG. 2.
Setting [8] is: 0.037% brimonidine after wash-out.

Read-outs that look alike come from different tables or passages of the source.

For `Brc1c(N=C2NCCN2)ccc2nccnc12.O=C(O)C(O)C(O)C(=O)O` [brimonidine, 5-bromo-6-(2-imidazolidinylideneamino) quinoxaline L-tartrate], the “scleral whitening brightening effects” value in assay [1] is on record as “significant scleral whitening brightening effects”. In assay [2], the “reversal of induced rebound hyperemia” value is given as “reversing the VISINE Original® induced rebound hyperemia”. Further, the patient-reported redness entry in assay [3] is “All patients reported reduced redness”. Also, the “Reduced Redness” value in assay [4] was found to be 95; in the assay on over-responders [5], 95; in the assay with over-responders [6] ([…] brimonidine after wash-out) it was 95; with over-responders [6] ([…] brimonidine), 85; in the assay on under-responders (setting [8]) it was 95; with under-responders ([…] brimonidine), 35. The Whitening in assay [4] is given as 95; in the assay on over-responders [5], 95; in the assay with over-responders [6] ([…] brimonidine after wash-out), 95; in the assay on over-responders [6] ([…] brimonidine) it was 85; in the assay on under-responders (setting [8]) it was 95; in the assay with under-responders ([…] brimonidine), 35. Also, the “concentration at which intraocular pressure reduction is at its maximum” value in assay [7] is on record as “about 0.09%”.
